Data on one molecule can be found in patent publication US6936569B2, “Compositions and methods for protecting cultivated plants from herbicidal injury” (priority 1998, dated 2005).

The structures appear in SMILES notation. Like-named read-outs stand apart in the source and are kept apart here.

Series [1] concerns AMARE redroot pigweed, Amaranthus retroflexus L. The series is described as follows: 1998 field trial: weed control, redroot pigweed. In kind it is in vivo. The note with it: Table 8: field, 60 DAP. As to the method: (§1) Conventional tillage experiments were conducted in 1998 to evaluate the influence of SMS and AFS-MTMS, on corn tolerance and weed control from postemergence applications of isoxaflutole alone and in tank-mixture with metolachlor/benoxacor. Experiments were conducted at the Michigan State University Crop and Soil Science Research Farm at East Lansing, Mich. on Capac sandy clay loam soil (fine-loamy, mixed mesic Acric Ochraqualfs) containing 3.1% organic matter with a pH of 6.3 in 1998.
(§2) Tillage consisted of moldboard plowing in the fall prior to spring disking and field cultivation. Prior to spring cultivation, 320 kg/ha of 46-0-0 fertilizer was applied broadcast. At planting, 140 kg/ha of 6-24-24 fertilizer was applied as a banded treatment 5 cm below and 5 cm beside the corn seeds. Pioneer 37R71 corn was planted on May 11, 1998 at a rate of 62,000 seeds/ha. Each plot was 10.6 m long and consisted of 4 rows spaced 76 cm apart. […]
(§3) Corn tolerance was evaluated 30 days after planting (DAP) by visually evaluating plants for bleaching and necrotic symptoms and also by measuring corn height (base of plant to the crown) 40 DAP. Weed control by species was visually evaluated 60 DAP. […] Corn grain yield was determined by harvesting the center two rows of each plot with a plot combine. […]

The subject of series [2] is CHEAL - common lambsquarter, Chenopodium album L. Put plainly: 1998 field trial: weed control, common lambsquarters. The note with it: Table 8: field, 60 DAP. In kind it is in vivo. The method, then: as §1
Tillage consisted of moldboard plowing in the fall prior to spring disking and field cultivation. Prior to spring cultivation, 320 kg/ha of 46-0-0 fertilizer was applied broadcast. […]
as §3
Corn (ZEAMX) in the 2-leaf or 4-leaf stage was treated with herbicidal compositions consisting of BALANCE (isoxaflutole); BALANCE and DUAL II (metolachlor and the safener benoxacor); BALANCE and SMS; BALANCE and AFS-MTMS; BALANCE, DUAL II and SMS; or BALANCE, DUAL, and AFS-MTMS. The percent injury was determined 6 DAT, 12 DAT, and 30 DAP. […]

Series [3] has as its system velvetleaf. To be noted: postemergence application, isoxaflutole 105 g/ha; cited from earlier work.
Series [4] concerns Pioneer 3573 corn. Put plainly: Greenhouse corn tolerance (visual injury, corn height) after postemergence isoxaflutole with or without metolachlor/benoxacor plus test adjuvants (Example 1). It counts as in vivo, Zea mays. To be noted: 8 DAT. As to the method: Various silicone-based compounds were evaluated for ability to prevent herbicidal injury to the corn when used as repellent adjuvants in herbicide formulations. In previous experiments, it was shown that isoxaflutole in combination with metolachlor and benoxacor applied once corn had emerged caused significant corn injury. The basis of this severe injury is the retention and subsequent absorption of isoxaflutole in the foliar tissue of the corn plant, which is exacerbated by the metolachlor herbicide in the composition. Therefore, to address this problem, a number of silicon-based compounds, which were believed to have repellent properties, were evaluated for the ability to prevent injury to corn plants. The compounds evaluated were an aqueous solution of […] sodium methyl siliconate and 67 weight percent water (“SMS”), an aqueous solution of 35.7 weight percent N-(2-aminoethyl)-3-aminopropyltrimethoxysilane, 58.2 weight percent methyltrimethoxysilane, and 6.1 weight percent water (“AFS-MTMS”), methyltrimethoxysilane (“MTMS”), and phosphonate ester alkyl silicon (“PEAS”). These test adjuvants are commercially available from Dow Corning, Midland, Mich. The test adjuvants were applied in combination with isoxaflutole or isoxaflutole in combination with metolachlor and the safener benoxacor, and the ability of the combination to reduce plant injury by inhibiting retention and subsequent absorption of the herbicide was evaluated.
Pioneer 3573 corn seeds (Pioneer 3573, a product of Pioneer Hi-Bred International, Inc., Des Moines, Iowa) were planted 2.54 cm deep, and velvetleaf and barnyardgrass seeds were planted 1.0 cm deep in 875 ml pots containing BACCTO professional greenhouse potting mix (a product of Michigan Peat Co., Houston, Tex.). The seedlings were grown in a greenhouse maintained at 25° C.±2° C. Natural sunlight was supplemented with light from sodium vapor lamps, which provided a total midday light intensity of 1,000 μmol m^−2 s^−1 photosynthetic photon flux at plant height during a 16 hour photoperiod. Plants were watered daily and fertilized weekly with 50 ml of a water soluble fertilizer solution (400 ppm nitrogen, 400 ppm P2O5, and 400 ppm K2O). […]
The herbicide compositions were applied through an 8003 E flat fan nozzle (available from Spraying Systems Co., Wheaton, Ill.) delivering 234 L/ha at a pressure of 172 kPa (25 gallons/acre). Corn tolerance was evaluated 8 days after treatment (DAT) by visually evaluating the plants for bleaching and necrotic symptoms and also by measuring corn height (base of the plant to its crown). […] Corn height was measured in cm and presented as a percent of the non-treated plants, with 0 indicating total reduction in plant height and 100 indicating height equal to the non-treated plants. […]

Series [5] has as its system ABUTH - velvet-leaf, Abutilon theophrasti Medicus. Put plainly: 1998 field trial: weed control, velvetleaf. In kind it is in vivo. To be noted: Table 8: field, 60 DAP. The method, then:
as §1, §2, §3

Series [6] concerns common ragweed. To be noted: postemergence application, isoxaflutole 105 g/ha; cited from earlier work.
Series [7] deals with giant foxtail, Setaria faberi Herrm. (SETFA). The series is described as follows: 1998 field trial: weed control, giant foxtail. It counts as in vivo. To be noted: Table 8: field, 60 DAP. The method, then: as §1, §2, §3
In series [8] the test system is 2-leaf corn. The series is described as follows: Greenhouse corn tolerance (visual injury, corn height) after isoxaflutole with or without acetochlor/MON-13900 plus adjuvants (Example 3). It counts as in vivo, Zea mays. The note with it: Table 9: greenhouse, 8 DAT, isoxaflutole 105 g/ha. The method, then:
This example was performed as in Example 1, except that adjuvants SMS and AFS-MTMS were added to an isoxaflutole tank-mixture that contained an acetochlor herbicide and the safener MON-13900. As in Example 1, the herbicide applications were made to 2-leaf corn, and the herbicide treatments consisted of isoxaflutole at 105 g/ha and isoxaflutole tank-mixed with 1.8 kg/ha of acetochlor/MON-13900 applied either alone or in combination with either NIS at 0.25% (v/v), SMS at 0.5% (v/v), or AFS-MTMS at 0.5% (v/v).
The herbicide compositions were applied through an 8003 E flat fan nozzle delivering 234 L/ha at a pressure of 172 kPa. Corn tolerance was evaluated 8 DAT by visually evaluating the plants for bleaching and necrotic symptoms and also by measuring corn height (base of the plant to its crown). Visual corn injury ratings were based on a scale from 0 to 100, with 0 indicating no effect and 100 indicating plant death. Corn height was measured in cm and presented as a percent of the non-treated plants, with 0 indicating total reduction in plant height and 100 indicating height equal to the non-treated plants. All experiments were conducted twice as completely randomized designs with four replications. Data were subjected to analysis of variance and means separated using Fisher's Protected LSD test at a+0.05. […]

Series [9] deals with redroot pigweed. To be noted: postemergence application, isoxaflutole 105 g/ha; cited from earlier work.
In series [10] the test system is common lambsquarters. The note with it: postemergence application, isoxaflutole 105 g/ha; cited from earlier work.
Series [11] has as its system ZEAMX - corn, Zea mays L. It counts as in vivo. To be noted: Table 8: field; for Corn Height: 40 DAP; for Grain Yield: seed weight adjusted to 15% moisture. As to the method: as §1
Tillage consisted of moldboard plowing in the fall prior to spring disking and field cultivation. Prior to spring cultivation, 320 kg/ha of 46-0-0 fertilizer was applied broadcast. At planting, 140 kg/ha of 6-24-24 fertilizer was applied as a banded treatment 5 cm below and 5 cm beside the corn seeds. Pioneer 37R71 corn was planted on May 11, 1998 at a rate of 62,000 seeds/ha. Each plot was 10.6 m long and consisted of 4 rows spaced 76 cm apart.
The tillage experiments were conducted as a randomized complete block design in a factorial arrangement with three replications. The factors consisted of herbicide application timing and herbicide treatment. Herbicides were applied when the corn was at the 2-leaf and 4-leaf stages. Corn leaf stages are described as the number of visible leaves. Herbicide treatments included isoxaflutole alone (BALANCE) at 105 g/ha and in combination with 1.1 kg/ha of metolachlor/benoxacor (DUAL II). Each of these treatments were applied either alone or with either SMS or AFS-MTMS. Each repellent was used at a rate of 0.5% v/v. Additional treatments not included in the factorial arrangement were an untreated check and a weed-free check. All herbicides were applied with a tractor mounted, compressed-air sprayer calibrated to deliver […] at 207 kPa using 8003 E flat-fan nozzles.
Corn tolerance was evaluated 30 days after planting (DAP) by visually evaluating plants for bleaching and necrotic symptoms and also by measuring corn height (base of plant to the crown) 40 DAP. Weed control by species was visually evaluated 60 DAP. Visual evaluations were based on a scale of 0 (no effect) to 100% (complete weed or crop death). Corn grain yield was determined by harvesting the center two rows of each plot with a plot combine. Seed weight was adjusted to 15% moisture.
Data were subjected to analysis of variance and means separated using Fisher's Protected LSD test at α=0.05. Data were combined over years when treatment and/or application timing by year interactions were not significant α=0.05. […] Corn height and yield results were converted to a percent of the weed-free treatment after separation.
Corn (ZEAMX) in the 2-leaf or 4-leaf stage was treated with herbicidal compositions consisting of BALANCE (isoxaflutole); BALANCE and DUAL II (metolachlor and the safener benoxacor); BALANCE and SMS; BALANCE and AFS-MTMS; BALANCE, DUAL II and SMS; or BALANCE, DUAL, and AFS-MTMS. The percent injury was determined 6 DAT, 12 DAT, and 30 DAP. As weed controls, the annual grasses (ANGR) and common lambsquarters, Chenopodium album L. (CHEAL) were treated with herbicidal compositions consisting of BALANCE; BALANCE and DUAL II; BALANCE and SMS; BALANCE and AFS-MTMS; BALANCE, DUAL II and SMS; or BALANCE, DUAL, and AFS-MTMS. The percent injury for the weed controls was determined 30 DAP.

[12] abbreviates: Table 3: 2-leaf corn, isoxaflutole 105 g/ha, adjuvant at the rate in the Rate column (0.5% v/v).

As for `CS(=O)(=O)c1cc(C(F)(F)F)ccc1C(=O)c1cnoc1C1CC1` [Isoxaflutole, 5-cyclopropyl isoxazol-4-4-yl-2-mesyl-trifluoromethylphenyl ketone], the “Weed Control, AMARE” value in series [1] (2-leaf application) is reported as 98%; in series [1] (4-leaf application), 100%. The entries for the “Weed Control, CHEAL” value in [2] (2-leaf application) and in series [2] (4-leaf application) were 95% and 96%, respectively. The control of velvetleaf entry in series [3] was “greater than 90%”. The “Height, Isoxaflutole” value in [4] (setting [12]) is reported as 100 % of control; in series [8], 99 % of control. The “Injury, Isoxaflutole” value is listed as 2% in series [4] (setting [12]) and 0% in series [8] (NIS 0.25% v/v, SMS or AFS-MTMS 0.5% v/v). For the same molecule, in series [4] (greenhouse, 2-leaf corn, adjuvant rate 0%, isoxaflutole 105 g/ha, metolachlor/benoxacor 1.1 kg/ha, scale 0 no effect to 100 plant death), the “% injury to corn” value was found to be 2%. For the same molecule, the “Corn Height as a Percent of Control” value in [4] (greenhouse, adjuvant rate 0%) is reported as 100 % of control height. Further, the “Weed Control, ABUTH” value is listed as 99% in [5] (2-leaf application) and 100% in [5] (4-leaf application). Further, the “control of common ragweed” value in [6] is given as “greater than 90%”. Also, the figures for the “Weed Control, SETFA” value in [7] (2-leaf application) and in [7] (4-leaf application) were 73% and 70%, respectively. The “control of redroot pigweed” value in [9] was “greater than 90%”. In series [10], the “control of common lambsquarters” value was “greater than 90%”. Besides, the “Corn Injury” value in series [11] (2-leaf application, 30 DAP (21 days after application), isoxaflutole 105 g/ha, metolachlor 1121 g/ha, adjuvants 0.5% v/v) turned out to be 0%; in series [11] (4-leaf application, 30 DAP (15 days after application)), 10%. Further, the “Corn Height” value in [11] (2-leaf application) and in series [11] (4-leaf application) was 61 cm throughout. Also, the “Grain Yield” value in series [11] (2-leaf application) is given as 10420 kg/ha; in series [11] (4-leaf application), 9995 kg/ha.
